Tests used:
Format in all cases: cell-based
oral plaque = assay: Plaque bacteria plated on blood agar and cultured with or without TPP; settings: plaque bacteria from four human subjects on blood agar, various concentrations of TPP
Method: Dental plaque is a biofilm that builds up on teeth and contains bacteria associated with cavities, gingivitis, and periodontitis. Plaque samples were obtained from four human subjects. Plaque bacteria from each subject was plated on blood agar and cultured in the presence or absence of various concentrations of Sodium tripolyphospate (TPP), which inhibits Cob(I)alamin adenosyltransferase.

oral microbial community = assay: Principal component analysis of active community composition by 16S rRNA genes from cultures of plaque; settings: cultures of plaque from a human subject, samples at 0, 3, 9 and 18 hours, all concentrations
Method: Principal component analysis was used to analyze changes in oral microbial community composition. Results of an analysis of the active community composition isolated from a human subject was carried out by analysis of 16S rRNA genes from cultures of plaque. The panel of species identified included 500 different species. Samples from the culture were taken at 0, 3, 9 and 18 hours.

Rothia dentocariosa = assay: Active fraction of microbes by rRNA analysis in liquid culture of oral plaque; settings: TPP at concentrations as low as 25 mM
From the text: (§1) Oral plaque containing Streptococcus sanguinis was obtained from a human subject and cultured in liquid culture in the presence or absence of TPP. S. sanguinis is a gram positive bacteria that binds to the surface if the teeth, where it acts as a tether for the attachment of other bacteria that form dental plaque, and contributes to the development of caries and periodontal disease. S. Sangunis has all of the genes required for anaerobic cobalamin biosynthesis.
(§2) Microbes exist in a range of metabolic states (e.g., dormant, active and growing) and analysis of ribosomal RNA (rRNA) is frequently employed to identify the ‘active’ fraction of microbes in samples. […] This is of particular interest given that other bacterial species may utilize and or depend on the cobalamin synthesized by S. Sanguinis, thus making this species a keystone esential to maintain a mature biofilm.

S. Genus probe 1 = assay: as above; settings: TPP at concentrations as low as 25 mM
From the text: as §1, §2

S. intermedius = assay: as above; settings: TPP at concentrations as low as 25 mM
From the text: as §1, §2

Solobacterium moorei = assay: as above; settings: TPP at concentrations as low as 25 mM
From the text: as §1, §2

Streptococcus sanguinis = assay: as above; settings: three hours of incubation
From the text: as §1, §2

For `O=P(O)(O)OP(=O)(O)OP(=O)(O)O` [TPP, sodium tripolyphosphate], the oral plaque growth (oral plaque) was “completely inhibited oral plaque growth in a dose dependent manner”, the “change in composition of bacterial communities” value (oral microbial community) was “affected all of the bacterial communities in similar ways at all concentrations” and the “activity of Rothia dentocariosa” value (Rothia dentocariosa) was “significantly reduced”. For the same molecule, the “activity of S. Genus probe 1” value (S. Genus probe 1) was “significantly reduced”, the “activity of S. intermedius” value (S. intermedius) was “significantly reduced” and the “activity of Solobacterium moorei” value (Solobacterium moorei) was “significantly reduced”. For the same molecule, the “fraction of active S. Sanguinis vs control with no TPP” value (Streptococcus sanguinis; 25 mM TPP) was “significantly lower” and the “fraction of active S. Sanguinis vs control with no TPP” value (Streptococcus sanguinis; 50 mM TPP) was “significantly lower”.
